Reference: US20240245654A1, “ADJUNCTIVE D-CYCLOSERINE AUGMENTATION OF TRANSCRANIAL MAGNETIC STIMULATION (TMS) THERAPY FOR MAJOR DEPRESSIVE DISORDER” (MCGRX CORP., priority 2021, published 2024)
Entries after “also recorded” stand apart in the source; their conditions may differ.

Legend:
[1] = tested on: motor cortex (iTBS synaptic plasticity); experiment: Motor cortex iTBS, MEP and stimulus response curve, placebo-controlled crossover study in Major Depressive Disorder (NCT03937596); format: in vivo, human
tDCS plasticity = details: compared with tDCS alone; cited from earlier work
[2] = tested on: TMS-associated plasticity; details: low dose; cited from earlier work
[3] = tested on: treatment resistant major depressive disorder (MDD); experiment: 4-week double-blind placebo-controlled RCT of iTBS+DCS in treatment resistant MDD: depression, CGI, anxiety, wellbeing outcomes; format: in vivo, human; details: for rate of clinical remission (MADRS≤10): iTBS+placebo 4.2%
Experimental: Methods: In this preregistered (NCT03937596) single site 4-week randomized double-blind placebo-controlled trial, fifty participants with treatment resistant MDD were randomized 1:1 to ITBS+Placebo or iTBS+D-Cycloserine (100 mg). Participants were asked to take the adjunct or placebo at least 60 minutes prior to daily iTBS treatments for the first two weeks, and iTBS continued without an adjunct for weeks three and four. We utilized a MagPro X100 stimulator (MagVenture, Denmark) and a COOL-B70 coil. Targeting of the left DLPFC involved surface anatomy and the Beam F3 method^30. Although anatomical and functional neuroimaging was collected as part of the study protocol, targeting utilizing surface anatomy was chosen to increase generalizability to clinical settings where neuroimaging derived targets are not feasible. This target was registered to either the participant's anatomical MRI or to a template brain for those who could not complete neuroimaging (Visor2, ANT Neuro, the Netherlands). Resting motor threshold (rMT) was determined using electromyographic (EMG) electrodes placed over the first dorsal interosseous muscle, with threshold determined as the stimulus intensity required to elicit a minimum of 5 out of 10 EMG responses of >50 uV.
Patients all received active-iTBS, consisting of a total of 600 pulses per session delivered in twenty trains of triplets at 50 Hz repeated at 5 Hz (2 s on 8 s off) at 80% rMT. Participants received daily treatments Monday through Friday for a total of 20 treatments.
The primary outcome was change in depressive symptoms as measured by the Montgomery Asberg Depression Rating Scale (MADRS) at the conclusion of treatment. Secondary outcomes included clinical response (≥50% improvement in MADRS), clinical remission (MADRS≤10), and clinical global impression (CGI).

[4] = tested on: neurite density at the iTBS target site; experiment: RCT of iTBS+DCS in MDD: NODDI diffusion MRI at iTBS target site; format: in vivo, human; details: iTBS+DCS treated participants; not in iTBS+Placebo; listed as DCS
Source text: Neurite Density and Dispersion Orientation Index (NODDI)^32 is an MRI tool that provides a proxy measure of neurite morphology and arborization that has been validated against histology in model species^33,34. While more commonly applied to white matter, NODDI has discriminating power in cortical gray matter in both health and disease^35-37. Neurite density metrics reflect the volume within neurites, whereas orientation dispersion metrics capture the tortuosity or complexity of neural processes, both of which are affected in MDD.
In the randomized placebo-controlled trial discussed in the Example above, diffusion magnetic resonance data to quantify Neurite Density and Dispersion Orientation Index (NODDI)^32 were acquired using a 3T General Electric Discovery MR750 scanner at the Seaman Family MR Research Center. This method provides a proxy measure of histopathological features in brain white and gray matter to describe neurite morphology and arborization.

[5] = tested on: suicidal ideation and suicide risk in MDD; experiment: RCT of iTBS+DCS in MDD: suicidal ideation and death-implicit association test; format: in vivo, human; details: iTBS+DCS vs iTBS+Placebo, listed as DCS
Source text: Participants also completed a computerized neuropsychological test called the death-implicit association test that is associated with suicide attempts, both retrospectively and prospectively.

[6] = tested on: MDD-related cognitive impairment; experiment: RCT of iTBS+DCS in MDD: cognition (PDQ, THINC-it N-Back); format: in vivo, human; details: iTBS+DCS 100 mg vs iTBS+Placebo; listed as DCS
Experimental: The efficacy of 100 mg DCS as an adjunctive strategy to iTBS to reduce MDD-related cognitive impairment and/or improve cognition in MDD was be tested in the randomized controlled trial described in the above Example.
Participants completed the Cognitive Failures Questionnaire (CFQ31) and the Perceived Deficits Questionnaire (PDQ) as well as the THINC-it computerized neurocognitive battery at baseline and after treatment.

[7] = tested on: left primary motor cortex (iTBS synaptic plasticity); experiment: Repeated spaced iTBS of motor cortex, MEP and stimulus response curve, placebo-controlled crossover trial in healthy individuals (NCT05081986); format: in vivo, human; details: n=20 healthy, vs placebo
Experimental: Methods: This experiment was a pre-registered randomized, double-blind, placebo-controlled crossover trial (NCT05081986). Twenty healthy individuals were randomly assigned to one of two experimental arms of the crossover study: a) Placebo-D-cycloserine and b) D-cycloserine-placebo. In the placebo arm, participants received one oral dose of 100 mg microcrystalline cellulose one hour prior to iTBS. In the D-cycloserine 100 mg arm, participants received one oral dose of 100 mg D-cycloserine one hour before ITBS. Participants attended the laboratory on two occasions to complete both arms of the crossover design. Time of arrival was standardized across visits, and visits were separated by at least seven days.
All TMS pulses were delivered using a neuro-navigated MagPro stimulator (X100 system, MagVenture, Denmark) with a biphasic Cool-B70 figure-eight coil. […] The peak-to-peak amplitude of MEPs were recorded from two surface electromyographic (EMG) electrodes placed on the right first dorsal interosseous muscle (FDI), with the ground electrode placed on the right styloid process. […]
TMS was delivered to the left primary motor cortex to identify the area that, when stimulated, elicited the largest peak-to-peak FDI MEP amplitude (the hotspot). […] The resting motor threshold (RMT) was determined as the lowest stimulator output, which elicited peak-to-peak MEP amplitudes≥0.05 mV in 5/10 trials. […]

[8] = tested on: motor cortex (MEP facilitation after iTBS); details: healthy participants, described elsewhere; cited from earlier work

**Q.** For `N[C@@H]1CONC1=O` [D-cycloserine], which “relationship between ΔAUC 90 min and ΔAUC NextDay of the SRC” value ([1]; D-cycloserine groups, placebo groups weak negative relationship) is on record?
**A.** Its value is “positively correlated; also recorded: positive relationship”.

**Q.** What about the “MEP time course following iTBS” value ([1]; MDD participants n=12, 100 mg, vs placebo arm) of the same compound?
**A.** Its value is “did not impact”.

**Q.** What about the “change in stimulus response curve the day following iTBS” value ([1]; MDD participants, 100 mg, compared with healthy-placebo and MDD-placebo) of the same compound?
**A.** Its value is “normalized”.

**Q.** And the “duration of sustained plasticity with transcranial direct current stimulation” value (tDCS plasticity)?
**A.** Its value is “more than 12 hours”.

**Q.** What about the “short-term facilitation with high-frequency rTMS” value [2] of the same compound?
**A.** Its value is “increases short-term facilitation”.

**Q.** And the “OR of clinical response” value ([3]; 2 weeks, iTBS+DCS vs iTBS+placebo, 95% CI: 1.41-21.03)?
**A.** The value was 5.45.

**Q.** And the “rate of clinical remission (MADRS≤10)” value ([3]; 2 weeks)?
**A.** The value was 17.4%.

**Q.** And the “rate of clinical response (≥50% improvement in MADRS)” value ([3]; 2 weeks, iTBS+placebo 16.7%)?
**A.** The value was 52.2%.

**Q.** And the “OR of clinical remission” value ([3]; 4 weeks, iTBS+DCS vs iTBS+placebo, 95% CI: 1.68-129.52)?
**A.** The value was 14.78.

**Q.** And the “OR of clinical response” value ([3]; 4 weeks, iTBS+DCS vs iTBS+placebo, 95% CI: 1.91-24.77)?
**A.** Its value is 6.88.

**Q.** And the “rate of clinical remission (MADRS≤10)” value ([3]; 4 weeks)?
**A.** The value was 39.1%.

**Q.** What about the “rate of clinical response (≥50% improvement in MADRS)” value ([3]; 4 weeks, iTBS+placebo 29.2%) of the same compound?
**A.** The value was 73.9%.

**Q.** And the “change in depressive symptoms (MADRS scores)” value ([3]; iTBS+DCS 100 mg vs iTBS+Placebo, mITT, 4 weeks, listed as DCS)?
**A.** Its value is “significant improvement in depressive symptoms; also recorded: greater reductions in depressive symptoms”.

**Q.** What about the “MADRS mean difference, per treatment analyses” value ([3]; iTBS+DCS vs iTBS+Placebo, 2 weeks, 95% CI: 0.43-7.51) of the same compound?
**A.** Its value is 3.97.

**Q.** And the “MADRS mean difference, per treatment analyses” value ([3]; iTBS+DCS vs iTBS+Placebo, 4 weeks, 95% CI: 2.66-11.52)?
**A.** Its value is 7.09.

**Q.** And the “Hedge's g (MADRS change)” value ([3]; iTBS+DCS vs iTBS+Placebo, 95% CI: 0.34-1.62)?
**A.** Its value is 0.99.

**Q.** And the CGI-Improvement scores ([3]; iTBS+DCS vs iTBS+Placebo, at 2 weeks and 4 weeks, listed as DCS)?
**A.** Its CGI-Improvement scores is “greater improvements on the clinical global impression scale; also recorded: greater improvement”.

**Q.** What about the “mean difference on the MADRS” value ([3]; iTBS+DCS vs iTBS+Placebo, mITT, baseline to 4 weeks, 95% CI: 2.43-9.88, p=0.001) of the same compound?
**A.** Its value is 6.15.

**Q.** What about the CGI-severity scale ([3]; iTBS+DCS vs iTBS+Placebo, p=0.0014, listed as DCS) of the same compound?
**A.** The CGI-severity scale was “greater improvements in clinical global impression severity scores”.

**Q.** What about the “visual analog scale for overall wellbeing” value ([3]; iTBS+DCS vs iTBS+Placebo, p=0.018, listed as DCS) of the same compound?
**A.** The value was “greater improvements in overall wellbeing; also recorded: greater improvement”.

**Q.** What about the “self-reported anxiety symptoms (GAD-7)” value ([3]; iTBS+DCS vs iTBS+Placebo, p=0.035, listed as DCS) of the same compound?
**A.** The value was “greater improvements in anxiety; also recorded: greater improvement”.

**Q.** What about the “neurite density at the target site (NODDI)” value [4] of the same compound?
**A.** Its value is “increased neurite density; also recorded: Neurite density increases”.

**Q.** What about the suicidal ideation [5] of the same compound?
**A.** Its suicidal ideation is “rapid resolution of suicidal ideation; also recorded: greater reductions in suicidal ideation”.

**Q.** And the “death-implicit association test performance” value ([5]; persisted when controlling for depressive symptom improvement)?
**A.** The value was “showed improvement; also recorded: greater reductions in scores”.

**Q.** What about the “objective cognitive function, N-Back task of working memory” value [6] of the same compound?
**A.** The value was “significantly greater improvements; also recorded: significant improvements”.

**Q.** And the “subjective cognitive function (Perceived Deficits Questionnaire)” value [6]?
**A.** Its value is “significantly greater improvements; also recorded: significant improvements”.

**Q.** What about the “facilitation of MEP peak to peak amplitude after repeated spaced iTBS” value ([7]; 100 mg oral one hour before iTBS, two iTBS separated by an hour) of the same compound?
**A.** The value was “not impacted”.

**Q.** What about the “stimulus response curve change after iTBS” value ([7]; adjunctive 100 mg) of the same compound?
**A.** The value was “significant and sustained facilitation”.

**Q.** And the “facilitation of MEPs after iTBS” value [8]?
**A.** The value was “blunted facilitation of MEPs”.
